According to PubChem BioAssay (NCI):
Values joined by “and” are separate entries in the source; they are usually repeats but may differ in a detail not shown here. Equal entries are not always repeated.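 Values below derive from 48-hour exposures of cells grown in 96-well plates, with endpoints linearly interpolated between the two concentrations bracketing the appropriate inhibition level. Here, GI50 denotes the concentration required for 50% inhibition of growth. Definition used: TGI = concentration required for complete inhibition of growth.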

Assays:
Assay in all cases: DTP human tumour cell line panel, 48 h
NCI/ADR-RES ovarian = tested on: NCI/ADR-RES ovarian
MDA-MB-435 = tested on: MDA-MB-435
MDA-MB-231 breast = tested on: MDA-MB-231 breast
SNB-78 CNS = tested on: SNB-78 CNS
DMS 273 small cell lung = tested on: DMS 273 small cell lung
M19-MEL melanoma = tested on: M19-MEL melanoma
DMS 114 small cell lung = tested on: DMS 114 small cell lung
RXF-631 renal = tested on: RXF-631 renal
MDA-N = tested on: MDA-N

Structure (SMILES) | GI50 (NCI/ADR-RES ovarian) [µM] | TGI (NCI/ADR-RES ovarian) | GI50 (MDA-MB-435) [µM] | TGI (MDA-MB-435) | GI50 (MDA-MB-231 breast) [µM] | TGI (MDA-MB-231 breast) [µM] | TGI (SNB-78 CNS) [µM] | TGI (DMS 273 small cell lung) [µM] | TGI (M19-MEL melanoma) [µM] | TGI (DMS 114 small cell lung) [µM] | also measured
O=c1c(F)cn(Cc2ccccc2CCl)c(=O)n1Cc1ccccc1CCl | 2.97 | 11.8 µM | 1.68 | 3.4 µM | 1.93 | 4.92 |  |  |  |  | 
CCC(=O)Nc1nc2c(ncn2C2OC(COC(=O)CC)C(OC(=O)CC)C2OC(=O)CC)c(=O)[nH]1 (stereo unspecified) |  |  |  |  |  |  | > 100 | > 100 | > 100 |  | 
O=[N+]([O-])c1ccc(-c2ccc(-c3csc(Nc4ccccc4)n3)o2)cc1 |  |  |  |  |  |  | 38.4 | 49.4 | > 81.6 | 63.5 | 
Cc1ccccc1NC(=O)C1C(=O)N(c2ccccc2C)C(=O)/C1=N\NC(N)=S (stereo unspecified) |  |  |  |  |  |  |  | > 100 |  |  | TGI (RXF-631 renal): > 100 µM
CC(NC(=O)N(C)C)NC(=O)N(C)C |  | > 10 µM |  | > 10 µM |  | > 10 |  |  |  |  | TGI (MDA-N): > 10 µM
COc1ccc(/C(=N\NC(=S)NN)C(c2ccc(OC)cc2)C2C(=O)Oc3ccccc32)cc1 (stereo unspecified) |  |  |  |  |  |  | > 100 | > 100 | > 100 | > 100 | GI50 (SNB-78 CNS): > 100 µM; GI50 (DMS 273 small cell lung): > 100 µM; GI50 (M19-MEL melanoma): > 100 µM
CC(=O)N1CCC2(c3ccccc3N(C(C)=O)C2c2ccc(O)cc2)C1C(=O)O (stereo unspecified) |  |  |  |  |  |  | > 100 | > 100 | > 100 | > 100 | 
CCOC(=O)C1SC(=Nc2ccc(Cl)cc2)N=C1C (stereo unspecified) |  |  |  |  |  |  | 89.3 |  | 33 | 81 | 
NC(=S)NN/C=C(\C=Nc1ccccc1)[N+](=O)[O-] |  |  |  |  |  |  |  |  | > 100 | > 100 | 
O=C(O)c1ccc(C2C(=O)N[C@@H]3CCC[C@H]23)cc1 (stereo partly specified) |  |  |  |  |  |  | > 100 | > 100 | > 100 | > 100 | 
CCOC(=O)NC(=O)c1cn(CCN2CCN(C(=O)CCCCCCCCCCC(=O)N3CCN(CCn4cc(C(=O)NC(=O)OCC)c(=O)[nH]c4=O)CC3)CC2)c(=O)[nH]c1=O |  |  |  |  |  |  |  |  | > 100 | > 100 | 
CCNC(=O)c1noc(-c2cc(C(C)C)c(O)cc2O)c1-c1ccc(CN2CCOCC2)cc1 | 0.313 | 44.1 µM | < 0.0167 | 19.5 µM | 0.0747 | 15.7 |  |  |  |  | 
CC(=O)O[C@H]1CCc2c(cc(N)c3c2C(=O)C[C@]2(C)C([C@H](C)CCCC(C)C)CCC32C)C1(C)C (stereo partly specified) |  | > 100 µM |  | > 100 µM |  | > 100 |  |  |  |  | TGI (MDA-N): > 100 µM
CN(C)C(=O)O[C@H]1CN[C@H](C#Cc2cc3ncnc(Nc4ccc(OCc5cccc(F)c5)c(Cl)c4)c3s2)C1 | 9.82 | > 25 µM | > 25 | > 25 µM | 4.14 | 11.6 |  |  |  |  | 
CSC(=S)N/N=C/c1nccc2ccccc12 |  |  |  |  |  |  | 63.6 | > 21.8 | > 33.6 |  | TGI (RXF-631 renal): > 82.9 µM
COc1cnc2c(c1)C(=O)c1c-2n(CCCN2CCN(C)CC2)c(=O)c2cc([N+](=O)[O-])ccc12 | 0.323 | 5.82 µM | 0.166 | 0.334 µM |  |  |  |  |  |  | 
O=c1oc2ccc(I)cc2c(=O)n1-c1ccc(Cl)cc1F | 1.87 | 21.7 µM | 1.9 | 10.3 µM | 1.27 | 5.71 |  |  |  |  | 
O=C(Nc1ccc(Cl)c(Cl)c1)NS(=O)(=O)c1cnccc1Oc1ccc(F)cc1 | 4.38 | > 100 µM | 2.98 | 12.2 µM | 5.5 | 38.5 |  |  |  |  | 

Structure (SMILES) | GI50 (NCI/ADR-RES ovarian) [µM] | TGI (NCI/ADR-RES ovarian) | GI50 (MDA-MB-435) [µM] | TGI (MDA-MB-435) | GI50 (MDA-MB-231 breast) [µM] | TGI (MDA-MB-231 breast) [µM] | TGI (SNB-78 CNS) [µM] | TGI (DMS 273 small cell lung) [µM] | TGI (M19-MEL melanoma) [µM] | TGI (DMS 114 small cell lung) [µM] | also measured
COC(=O)C(/C(=N\O)C(=O)Nc1cccc(Cl)c1C)c1cnc2ccccc2n1 (stereo unspecified) |  | > 100 µM |  | > 100 µM |  | > 100 |  |  |  |  | TGI (MDA-N): > 100 µM
Cc1ccccc1C(=O)N1CCN(C(=O)c2ccccc2C)CC1 |  |  |  |  |  |  | > 100 | > 100 | > 100 |  | TGI (RXF-631 renal): > 100 µM
CN1/C(=C\C=C\C2=[N+](C)c3ccccc3C2(C)C)C(C)(C)c2ccccc21 | 1.29 | 4.97 µM | 0.0739 | 0.936 µM | 0.248 | 1.58 |  |  |  |  | 
c1ccc(N2N=C(c3ccco3)CC2c2ccco2)cc1 (stereo unspecified) |  |  |  |  |  |  | > 100 | > 100 | > 100 | > 100 | 
CCN(C(=O)/C=C/c1ccco1)c1ccccc1 |  | > 100 µM |  | > 100 µM |  | > 100 |  |  |  |  | TGI (MDA-N): > 100 µM
O=S(=O)(CCCl)c1ccc(Cl)cc1 | 3.86 | 40.6 µM | 2.7 | 12.6 µM | 2.55 | 9.03 |  |  |  |  | 
Cn1c2ccccc2c(=O)c2c(O)cc3c(c21)C=CC1(CCCCC1)O3 |  | > 10 µM |  | > 10 µM |  | > 10 |  |  |  |  | TGI (MDA-N): > 10 µM
CSC(=NCCc1c[nH]c2ccccc12)NC#N |  |  |  |  |  |  | > 100 | > 100 | > 100 | > 100 | 
Cc1cc(I)cc(CN(C)CCCN2CCCC2)c1O | 36.7 | > 100 µM | 12.9 | 28.6 µM | 18.6 | 49.9 |  |  |  |  | 
COc1ccc(C(=O)c2ccc([As]=O)cc2)cc1 (stereo unspecified) |  |  | 0.121 | 0.254 µM | 0.087 | 0.242 |  |  |  |  | 
CCCCN(CCCC)C(=O)/C(CC(=O)c1cccc2ccccc12)=N\NC(=O)c1cc2ccccc2cc1O |  |  |  |  |  |  | 99.7 |  | > 100 |  | TGI (RXF-631 renal): 70.5 µM
CC(=O)/C(=C/c1ccccc1F)C(=O)c1ccccc1 |  | > 100 µM |  | > 100 µM |  | 92.5 |  |  |  |  | TGI (MDA-N): > 100 µM
CC(C)(C)c1cc(C=C(C#N)C#N)cc(C(C)(C)C)c1O | 0.0629 | 15.1 µM and 41.5 µM | 0.252 | 29.9 µM and 12.4 µM | 0.0923 | 0.675 |  | 5.51 |  | 7.3 | GI50 (MDA-N): 0.346 µM; TGI (MDA-N): 56.7 µM
CCOC(=O)/C(C#N)=C\C=C(/Cl)c1ccc(Cl)cc1 | 22 | 44.6 µM | 10.5 | 32.9 µM | 22.1 | 45.9 |  |  |  |  | 
C/C(=N/NC(=O)C[N+](C)(C)C)C(CN(C)C)C(=O)Nc1ccccc1 (stereo unspecified) |  |  |  |  |  |  |  | > 100 | > 100 | > 100 | 
CC1(C)CC2C(=O)c3ccccc3NC2c2ccccc21 (stereo unspecified) |  | > 100 µM |  |  |  |  |  |  |  |  | 
Oc1ccccc1-c1nn(CNc2ccccc2Cl)c(=S)o1 | 18.2 | 72.7 µM | > 100 | > 100 µM | > 100 | > 100 |  |  |  |  | 
